# Activity calls are given as the source filed them.
# Columns and labels:
# [1] = target: T1, Polyadenylate-binding protein 1 (Homo sapiens, UniProt P11940); test: MLLE binding blockers, Cy5 peptide tracer – biochemical, fluorescence polarization, Cy5-PAM2 peptide, secondary, miRNA deadenylation inhibitor project, dose response (AID 602260); assay type: functional; conditions: read-out: IC50_Mean
# [2] = target: T1, Polyadenylate-binding protein 1; test: MLLE domain peptide-binding blockers, IC50 – biochemical, fluorescence polarization, FITC-PAM2 peptide, dose response (AID 602259); assay type: functional; conditions: read-out: IC50_Mean
# [3] = viability of PTEN-deleted HCT116 cells – cell-based, HCT116 PTEN knockout, dose response (AID 1047); assay type: functional;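 note: HCT116 colon tumor cells with PTEN knocked out; cells exposed to compound for 60 hours before readout; potency for loss of cell viability measured by luminescence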
# [4] = viability of HCT116 lacking mutant beta-catenin – cell-based, human colon tumor, dose response (AID 1045); assay type: functional;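 note: HCT116 colon tumor cells with beta catenin knocked out; cells exposed to compound for 60 hours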
# [5] = target: Prothrombin (Homo sapiens, UniProt P00734); test: Thrombin 1536 HTS Dose Response Confirmation. [Related pubchem assays: 1046 (Thrombin 1536 HTS; hits were confirmed in this assay)]; assay type: functional
# [6] = NIH-3T3 fibroblast cytotoxicity, dose response, cytotoxicity control, cell-based, fluorescence, Alamar Blue, secondary assay (AID 2327); assay type: functional;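 note: NIH-3T3 mouse fibroblasts cultured with fluconazole at 8 µg/mL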
# [7] = fluconazole-exposed Candida albicans growth modulators – fluorescence, retest, confirmation (AID 2467); assay type: functional, cell-based
# [8] = test system: HeLa; test: ATP-based viability loss in HeLa cells – cell-based, CellTiter-Glo luminescence, cherry-pick samples, cytotoxicity control for MITF activator project, dose response (AID 540259); assay type: functional; conditions: Homo sapiens
# [9] = growth inhibition of yeast DHODH-expressing 3D7 parasites – SYBR Green, dry powder samples, dose response (AID 1159570); assay type: functional, cell-based;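 note: parasite growth measured after 72 hours of compound exposure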
# [10] = P. falciparum Dd2 growth inhibitors, dose response, SYBR Green, cherry-picked samples (AID 1159567); assay type: functional, cell-based
# [11] = Dd2 malaria parasite growth inhibition potency – SYBR Green, dry powder samples, dose response (AID 1159566); assay type: functional, cell-based;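 note: potency for growth inhibition with lower SYBR green DNA signal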
# [12] = growth inhibition of PfATP4-mutant resistant parasites – NITD609-resistant line, SYBR Green, dry powder, dose response (AID 1159571); assay type: functional, cell-based;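 note: parasites synchronized at ring stage by sorbitol before testing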
# [13] = viability inhibitors of stage V gametocytes – luminescence, dose response (AID 1117278); assay type: functional, cell-based;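 note: gametocytes exposed to compound for 24 hours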
# [14] = viability loss in human Jurkat cells – cell-based, luminescence, cytotoxicity control for P. falciparum gametocyte viability project, dose response (AID 1117277); assay type: functional;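 note: potency reflects loss of cellular ATP meaning fewer viable cells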
# [15] = target: Induced myeloid leukemia cell differentiation protein Mcl-1 (Homo sapiens, UniProt Q07820); assay type: functional
# Chain of Induced myeloid leukemia cell differentiation protein Mcl-1 (Q07820 whole entry, the tested form may be a part): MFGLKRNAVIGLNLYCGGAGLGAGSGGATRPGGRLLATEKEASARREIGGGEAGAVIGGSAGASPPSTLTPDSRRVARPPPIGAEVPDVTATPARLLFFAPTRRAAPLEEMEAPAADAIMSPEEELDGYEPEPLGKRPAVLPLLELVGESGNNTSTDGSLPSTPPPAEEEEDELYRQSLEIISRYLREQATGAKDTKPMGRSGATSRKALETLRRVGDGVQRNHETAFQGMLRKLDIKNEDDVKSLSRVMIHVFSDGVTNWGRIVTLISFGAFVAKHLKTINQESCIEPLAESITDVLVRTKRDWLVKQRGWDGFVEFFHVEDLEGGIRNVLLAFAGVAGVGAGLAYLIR
# [16] = blockers of HIV-1 envelope-mediated cell-cell fusion – cherry-pick, dose response (AID 652057); assay type: functional, cell-based
# [17] = HIV-1 AD8 envelope cell-cell fusion blockers – cherry-pick, dose response (AID 652062); assay type: functional, cell-based;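 note: luciferase signal from cell-cell fusion driven by HIV-1 clade B AD8 Env; potency is for inhibitors of fusion seen as a drop in luminescence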
# [18] = target: T2, Protein skinhead-1 (Caenorhabditis elegans, UniProt P34707); assay type: functional
# T2 sequence (P34707 whole entry): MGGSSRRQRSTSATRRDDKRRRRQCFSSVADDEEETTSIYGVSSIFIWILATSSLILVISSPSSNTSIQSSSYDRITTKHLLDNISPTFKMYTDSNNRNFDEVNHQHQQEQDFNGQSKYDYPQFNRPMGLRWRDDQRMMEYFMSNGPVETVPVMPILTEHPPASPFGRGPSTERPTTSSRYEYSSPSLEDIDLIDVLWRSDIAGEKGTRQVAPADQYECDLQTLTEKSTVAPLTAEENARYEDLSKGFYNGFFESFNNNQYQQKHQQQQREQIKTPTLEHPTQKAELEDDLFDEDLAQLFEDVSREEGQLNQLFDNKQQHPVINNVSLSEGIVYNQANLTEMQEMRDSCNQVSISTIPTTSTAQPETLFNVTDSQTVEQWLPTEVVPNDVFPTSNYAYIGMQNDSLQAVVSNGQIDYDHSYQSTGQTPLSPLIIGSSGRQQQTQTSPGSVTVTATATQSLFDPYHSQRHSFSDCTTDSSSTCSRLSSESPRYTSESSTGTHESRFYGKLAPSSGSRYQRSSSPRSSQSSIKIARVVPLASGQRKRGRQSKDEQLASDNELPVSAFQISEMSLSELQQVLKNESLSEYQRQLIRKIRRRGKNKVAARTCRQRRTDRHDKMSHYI
# [19] = A549 cell cytotoxicity, dose response, cytotoxicity control, plate reader, cherry-pick, antagonist series (AID 743412); assay type: functional, cell-based
# [20] = toxicity toward HepG2 liver cells – cell-based, plate reader, cherry-pick, antagonist series, cytotoxicity control, dose response (AID 743416); assay type: functional
# [21] = blockers of bursicon-stimulated LGR2 cAMP reporter – cell-based, HEK293, CRE-luciferase reporter, cherry pick, set 2, dose response (AID 743343); assay type: functional;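 note: transfected cells were stimulated with diluted bursicon conditioned medium after compound addition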
# [22] = blockade of melanocortin 4 receptor signaling – cell-based, plate reader, cherry pick, counter-screen for LGR2 antagonist project, dose response (AID 743444); assay type: functional;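 note: transfected HEK 293 cells stimulated with alpha-MSH peptide; potency of inhibitors of the alpha-MSH evoked signal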
# [23] = target: T3, Carboxy-terminal domain RNA polymerase II polypeptide A small phosphatase 1 (Homo sapiens, UniProt Q9GZU7); test: CTDSP1 inhibitors, concentration-response, biochemical, absorbance readout, ultra-high-throughput screen actives (AID 540297); assay type: functional
# T3 sequence (Q9GZU7 whole entry): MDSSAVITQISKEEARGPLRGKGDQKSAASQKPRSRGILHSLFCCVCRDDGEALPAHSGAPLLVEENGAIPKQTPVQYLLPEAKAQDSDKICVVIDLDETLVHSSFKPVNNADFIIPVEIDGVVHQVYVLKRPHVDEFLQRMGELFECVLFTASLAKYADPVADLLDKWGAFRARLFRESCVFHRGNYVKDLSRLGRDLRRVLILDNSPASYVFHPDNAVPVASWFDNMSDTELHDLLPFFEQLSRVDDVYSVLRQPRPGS
# [24] = Luminescence Cell-Based Dose Confirmation HTS to Identify Activators of 5'UTR Stem-Loop Driven Alpha-Synuclein mRNA Translation in H4 Neuroglioblastoma Cells. [Related pubchem assays: 1829 (Project Summary), 1814 (Primary HTS)]; assay type: functional
# [25] = Luminescence Cell-Based Dose Response HTS to Identify Activators of Luciferase Translation or Activity in H4 […] Cells. [Related pubchem assays: 1829 (Project Summary), 1814 (Primary HTS)]; assay type: functional
# [26] = test system: H4; test: Luminescence Cell-Based Dose Response HTS to Identify Activators of 5'UTR Stem-Loop Driven Prion Protein mRNA Translation in H4 Neuroglioblastoma Cells. [Related pubchem assays: 1829 (Project Summary), 1814 (Primary HTS)]; assay type: functional; conditions: Homo sapiens
# [27] = Trypanosoma cruzi growth suppression in host cells – NIH3T3 host cells, beta-gal luminescence, confirmation (AID 2044); assay type: functional, cell-based;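 note: intracellular parasites grown in NIH/3T3 mouse fibroblasts as host cells; luminescent beta-galactosidase reporter signal from transgenic T. cruzi replicating inside host cells; inhibitors lower the luminescence signal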
# [28] = NIH3T3 cell viability loss – ATP luminescence, mouse fibroblasts, counter-screen, dose response (AID 2010); assay type: functional, cell-based;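 note: cells exposed to compound for about 90 hours before reading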
# [29] = target: T4, Mannose-6-phosphate isomerase (Homo sapiens, UniProt P34949); test: MPI inhibition at elevated mannose 6-phosphate – biochemical, fluorescence intensity, high mannose 6-phosphate, primary screen (AID 1220)
# T4 sequence (P34949 whole entry): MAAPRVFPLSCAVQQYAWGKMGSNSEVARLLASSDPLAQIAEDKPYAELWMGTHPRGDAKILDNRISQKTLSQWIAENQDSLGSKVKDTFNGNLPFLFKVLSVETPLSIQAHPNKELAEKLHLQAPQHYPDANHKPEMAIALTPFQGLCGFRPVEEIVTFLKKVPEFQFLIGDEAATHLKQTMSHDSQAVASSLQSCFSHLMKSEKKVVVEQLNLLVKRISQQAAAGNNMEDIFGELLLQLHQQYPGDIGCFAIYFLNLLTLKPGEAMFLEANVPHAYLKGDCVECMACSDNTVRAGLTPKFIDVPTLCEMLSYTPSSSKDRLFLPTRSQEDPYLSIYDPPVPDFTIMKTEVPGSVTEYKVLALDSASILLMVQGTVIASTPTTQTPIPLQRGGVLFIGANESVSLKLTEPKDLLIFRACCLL
# T1 sequence (P11940 whole entry, the tested form may be a part): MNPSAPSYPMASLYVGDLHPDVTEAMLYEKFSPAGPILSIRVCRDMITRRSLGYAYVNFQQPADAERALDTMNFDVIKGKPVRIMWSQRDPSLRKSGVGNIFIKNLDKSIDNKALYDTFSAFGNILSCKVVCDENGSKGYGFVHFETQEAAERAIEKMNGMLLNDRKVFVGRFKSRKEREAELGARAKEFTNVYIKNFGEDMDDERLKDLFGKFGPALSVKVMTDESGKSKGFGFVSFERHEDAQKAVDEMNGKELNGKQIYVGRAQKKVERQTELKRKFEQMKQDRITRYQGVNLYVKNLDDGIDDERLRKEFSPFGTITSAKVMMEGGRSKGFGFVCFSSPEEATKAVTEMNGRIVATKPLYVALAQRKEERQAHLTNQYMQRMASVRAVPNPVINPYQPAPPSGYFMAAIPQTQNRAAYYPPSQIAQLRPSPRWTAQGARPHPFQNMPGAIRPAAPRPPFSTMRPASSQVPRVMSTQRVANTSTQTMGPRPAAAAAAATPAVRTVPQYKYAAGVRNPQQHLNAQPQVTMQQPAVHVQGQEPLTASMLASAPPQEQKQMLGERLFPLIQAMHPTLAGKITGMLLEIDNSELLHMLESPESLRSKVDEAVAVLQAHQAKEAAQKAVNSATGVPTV
structure (smiles),measurement,setting,value
CC(=O)Nc1c(Nc2ccccc2)c2ccccc2oc1=O,IC50,[1],> 66 µM (inactive)
same,IC50,[2],> 66 µM (inactive)
c1cncc(-c2nnc(-c3cccnc3)nn2)c1,EC50,[3],9.23 µM (active)
same,EC50,[4],9.6 µM (active)
same,IC50,[1],> 66 µM (inactive)
same,IC50,[2],> 66 µM (inactive)
CC(C)c1ccc(-c2c(C#N)c(N)nc(SCC(=O)N3CCCCCC3)c2C#N)cc1,IC50,[5],> 50 µM (not active)
Cc1cc(N2CCN(c3ccccc3)CC2)nc(-c2ccccc2)n1,IC50,[5],> 50 µM (not active)
Cc1ccc(Nc2nc(Cl)nc(NC(C)(C)C)n2)cc1,EC50,[6],> 160 µM (inactive)
same,EC50,[7],1.98 µM (active)
same,AC50,[8],159 µM (active)
COc1ccc2c3c([nH]c2c1)[C@H](CO)NCC31CCN(C(=O)Nc2ccc3c(c2)OCO3)CC1,AC50,[9],1.41 µM (active)
same,AC50,[10],0.914 µM (active)
same,AC50,[11],0.49 µM (active)
same,AC50,[12],0.949 µM (active)
COCC(C)n1c(C)cc(C(=O)COC(=O)c2ccc3c(c2)NC(=O)CS3)c1C (centres undefined),IC50,[1],> 66 µM (inactive)
same,IC50,[2],> 66 µM (inactive)
COc1ccc(OC)c(C2=NOC(C(=O)Nc3cc(C)on3)C2)c1 (centres undefined),IC50,[13],> 109 µM (inactive)
same,IC50,[14],> 83.4 µM (inactive)
O=C1OC(c2ccccc2)C2(CCCC2)C(=O)C12CCCC2 (centres undefined),IC50,[13],> 109 µM (inactive)
same,IC50,[14],> 83.3 µM (inactive)
O=C1/C(=C/c2ccccn2)SC(=S)N1c1ccc(O)cc1,IC50,[15],5.85 µM (active)
Cc1ccc(-c2ccc3c(c2)O[C@H](CN(C)Cc2ccncc2)[C@@H](C)CN([C@@H](C)CO)S3(=O)=O)cc1,AC50,[16],12.8 µM (active)
same,AC50,[17],26.5 µM (active)
C(=C\c1nnc(-c2cccs2)o1)/c1ccccc1,AC50,[8],50.6 µM (active)
same,IC50,[18],11.9 µM (active)
O=C(CCc1nnc(CCCCc2ccccc2)o1)N1CCCC(O)C1 (centres undefined),AC50,[19],0.513 µM (active)
same,AC50,[20],> 52 µM (inactive)
same,AC50,[21],3.63 µM (active)
same,AC50,[22],3.46 µM (active)
Cc1cccc(NC(=O)c2cc3n(n2)C(C(F)(F)F)CC(C2CC2)N3)c1C (centres undefined),IC50,[13],> 109 µM (inactive)
same,IC50,[14],> 83.3 µM (inactive)
O=C(O)c1cccc(NC(=S)NC(=O)c2cccc(OCc3ccccc3)c2)c1,IC50,[1],> 66 µM (inactive)
same,IC50,[2],> 66 µM (inactive)
CCc1nnc(NC(=O)c2cc(-c3ccco3)nc3ccccc23)s1,IC50,[15],3.18 µM (active)
same,IC50,[23],4.01 µM (active)
CCc1c(C)sc(NC(=O)c2cc(C3CC3)on2)c1C#N,IC50,[1],> 66 µM (inactive)
same,IC50,[2],> 66 µM (inactive)
O=C1C2C3C=CC(C2C(=O)N1c1cccc(O)c1)C1C2C(=O)N(c4cccc(O)c4)C(=O)C2C31 (centres undefined),IC50,[15],9.49 µM (not active)
CCN(CC)Cc1ccccc1Sc1ccccc1,IC50,[5],> 50 µM (not active)
COCC(=O)n1nc(-c2ccccc2)nc1NCc1ccc(F)cc1,IC50,[5],0.103 µM (active)
CCOC(=O)N1CCN(C(=O)c2ccccc2N(C)S(C)(=O)=O)CC1,IC50,[5],> 50 µM (not active)
CCOc1cc(S(=O)(=O)N2CCCCC2)ccc1Cl,IC50,[5],> 50 µM (not active)
Cc1cccn2cc(-c3ccc4c(c3)NC(=O)CO4)nc12,EC50,[24],7.24 µM (active)
same,EC50,[25],34.6 µM (active)
same,EC50,[26],7 µM (active)
same,IC50,[13],> 109 µM (inactive)
same,IC50,[14],> 83.3 µM (inactive)
Oc1ccc(CNc2ccc(F)cc2)c2cccnc12,EC50,[27],5.56 µM (active)
same,EC50,[28],> 60 µM (not active)
same,IC50,[29],31 µM (active)
C[C@H]1CN([C@@H](C)CO)C(=O)c2cc(NC(=O)Nc3ccccc3)ccc2O[C@H]1CN(C)Cc1ccc(-c2ccccc2)cc1,AC50,[19],24.2 µM (active)
same,AC50,[20],> 52 µM (inactive)
same,AC50,[22],39.4 µM (active)
Nc1cc(Nc2ccccc2)c2nonc2c1[N+](=O)[O-],IC50,[1],> 66 µM (inactive)
same,IC50,[2],> 66 µM (inactive)
CCC(Oc1ccccc1)C(=O)NCc1ccc(S(N)(=O)=O)cc1 (centres undefined),IC50,[13],> 109 µM (inactive)
same,IC50,[14],> 83.3 µM (inactive)
Cc1c(O)ccc(/C=N/Nc2nc(-c3cccnc3)nc3ccccc23)c1O,IC50,[15],6.03 µM (active)
C/N=C(/c1ccco1)n1c(=S)nc(-c2ccco2)n(C)c1=S,IC50,[29],> 50 µM (not active)
CCN(Cc1ccncc1)Cc1c(O)ccc2ccccc12,IC50,[29],> 50 µM (not active)
N#C[C@@H]1[C@H](c2ccc(C#Cc3cccc(F)c3)cc2)[C@@H](CO)N1C(=O)C1CC1,AC50,[19],24.4 µM (active)
same,AC50,[20],36.7 µM (active)
same,AC50,[21],61.3 µM (active)
